Results as given in patent publication US20190231791A1, “Combination Therapy” (Eli Lilly and Company, priority 2016, published 2019).
Like-named read-outs stand apart in the source and are kept apart here.

Assays:
beta-secretase = biological target: T1, beta-secretase (Mus musculus, UniProt P56818); assay: In vivo inhibition of beta-secretase, brain Abeta 1-x in PDAPP mice; details: young female PDAPP mice, three hours after dosing, vs vehicle, p<0.01
T1 construct: from tissue; host or cells: brain (hippocampus, cortex) of young female PDAPP mice, in vivo dosing
T1 sequence (P56818 46-501): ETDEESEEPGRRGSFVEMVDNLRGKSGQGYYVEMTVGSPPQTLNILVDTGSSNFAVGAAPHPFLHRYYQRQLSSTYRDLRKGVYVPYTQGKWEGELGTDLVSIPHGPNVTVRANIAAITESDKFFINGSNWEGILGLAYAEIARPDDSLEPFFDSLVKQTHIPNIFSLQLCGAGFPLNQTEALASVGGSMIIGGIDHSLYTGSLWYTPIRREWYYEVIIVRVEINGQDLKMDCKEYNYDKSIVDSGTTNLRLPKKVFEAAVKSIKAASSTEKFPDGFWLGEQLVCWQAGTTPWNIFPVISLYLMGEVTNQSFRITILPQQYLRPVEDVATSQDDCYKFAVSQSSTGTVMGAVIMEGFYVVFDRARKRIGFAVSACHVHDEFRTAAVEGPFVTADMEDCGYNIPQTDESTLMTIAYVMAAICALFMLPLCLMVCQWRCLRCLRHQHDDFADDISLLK
Excerpt: Several animal models, including mouse, guinea pig, dog, and monkey, may be used to screen for inhibition of beta-secretase activity in vivo following compound treatment. Animals used in this invention can be wild type, transgenic, or gene knockout animals. For example, the PDAPP mouse model, prepared as described in Games et al., Nature 373, 523-527 (1995), and other non-transgenic or gene knockout animals are useful to analyze in vivo inhibition of Abeta and sAPPbeta production in the presence of inhibitory compounds. Generally, 2 month old PDAPP mice, gene knockout mice or non-transgenic animals are administered compound formulated in vehicles, such as corn oil, beta-cyclodextran, phosphate buffers, PHARMASOLVE®, or other suitable vehicles via oral, subcutaneous, intra-venous, feeding, or other route of administration. 1 to 24 hours following the administration of compound, animals are sacrificed, and brains are removed for analysis of Abeta 1-x. “Abeta 1-x” as used herein refers to the sum of Abeta species that begin with residue 1 and end with a C-terminus greater than residue 28. This detects the majority of Abeta species and is often called “total Abeta”. Total Abeta peptides (Abeta 1-x) levels are measured by a sandwich ELISA, using monoclonal 266 as a capture antibody and biotinylated 3D6 as reporting antibody. (See May, et al., Journal of Neuroscience, 31, 16507-16516 (2011)).
For acute studies, compound or appropriate vehicle is administered and animals are sacrificed at about 3 hours after dosing. Brain tissue, is obtained from selected animals and analyzed for the presence of Abeta 1-x. After chronic dosing brain tissues of older APP transgenic animals may also be analyzed for the amount of beta-amyloid plaques following compound treatment.
For example, a 0.1, 0.3, and 1 mg/kg oral dose of Example 1, to young female PDAPP mice reduced Abeta 1-x peptide levels in brain hippocampus by 32%, 40%, and 55% (all values p<0.01), respectively.

human BACE2 (1-460):Fc = biological target: T2, human BACE2 (1-460):Fc (Homo sapiens, UniProt Q9Y5Z0); assay: BACE2 MBP-C125Swe assay; assay type: biochemical
T2 construct: 10 μL of 200 picomolar human BACE2 (1-460):Fc in the same reaction buffer; made in house; host or cells: HEK293 (transient transfection, purified from conditioned media by Protein A)
T2 sequence (Q9Y5Z0 21-460): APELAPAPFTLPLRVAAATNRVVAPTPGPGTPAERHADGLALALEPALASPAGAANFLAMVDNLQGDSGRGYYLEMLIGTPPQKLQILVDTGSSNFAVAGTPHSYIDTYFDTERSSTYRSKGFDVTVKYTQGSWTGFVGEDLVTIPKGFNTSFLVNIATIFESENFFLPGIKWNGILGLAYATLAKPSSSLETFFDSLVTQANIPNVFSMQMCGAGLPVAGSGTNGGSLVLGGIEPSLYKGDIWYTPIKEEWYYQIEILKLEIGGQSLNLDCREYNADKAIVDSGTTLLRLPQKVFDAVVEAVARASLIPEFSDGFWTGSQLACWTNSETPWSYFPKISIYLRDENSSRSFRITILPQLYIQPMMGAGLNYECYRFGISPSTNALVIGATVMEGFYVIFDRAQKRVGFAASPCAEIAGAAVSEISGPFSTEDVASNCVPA
Protocol: (§1) To assess selectivity of BACE1 over BACE2, the test compound is evaluated in FRET and immunoassay detection base enzymatic assays using specific substrates for BACE1 and BACE2 as described below. For in vitro enzymatic and cellular assays, the test compound is prepared in DMSO to make up a 10 mM stock solution. The stock solution is serially diluted in DMSO to obtain a ten-point dilution curve with final compound concentrations ranging from 10 μM to 0.05 nM in a 96-well round-bottom plate before conducting the in vitro enzymatic and whole cell assays.
Human BACE1 (accession number: AF190725) and human BACE2 (accession number: AF 204944) are cloned from total brain cDNA by RT-PCR. The nucleotide sequences corresponding to amino acid sequences #1 to 460 are inserted into the cDNA encoding human IgG1 (Fc) polypeptide (Vassar et al., Science, 286, 735-742 (1999)). This fusion protein of BACE1(1-460) or BACE2(1-460) and human Fc, named huBACE1:Fc and huBACE2:Fc respectively, are constructed in the pJB02 vector. […]
Conditioned media of HEK293 cells transiently transfected with huBACE1:Fc or huBACE2:Fc cDNA are collected. […] The purity of final product is assessed by electrophoresis in 4-20% Tris-Glycine SDS-PAGE. […]
10 point serial dilutions of test compounds are prepared in the appropriate range. […] The amount of product is measured by ELISA using MBP-C26swe standard. […]

BACE1 = biological target: T3, BACE1 (Homo sapiens, UniProt P56817); assay: SH-SY5YAPP695Wt whole cell assay (Abeta ELISA); assay type: cell-based; details: 24 hours incubation
T3 construct: endogenous in cells; host or cells: SH-SY5Y (ATCC CRL2266) stably expressing human APP695Wt
T3 sequence (P56817 46-501): as the sequence (P56818 46-501) above, with S6P, I162V, I165L, T180S, A182V, V340I, A393L, H443Q counted along it
Protocol: as §1
The routine whole cell assay for the measurement of inhibition of BACE1 activity utilizes the human neuroblastoma cell line SH-SYSY (ATCC Accession No. CRL2266) stably expressing a human APP695Wt cDNA. Cells are routinely used up to passage number 6 and then discarded.
SH-SY5YAPP695Wt cells are plated in 96 well tissue culture plates at 5.0×10^4 cells/well in 200 μL culture media (50% MEM/EBSS and Ham's F12, 1× each sodium pyruvate, non-essential amino acids and NaHCO3 containing 10% FBS). […]
At the end of the incubation, conditioned media are analyzed for evidence of beta-secretase activity by analysis of Abeta peptides 1-40 and 1-42 by specific sandwich ELISAs. […]

reduction of Abeta 1-x levels in brain cortical tissue (beta-secretase; 0.1 mg/kg oral): 38%
reduction of Abeta 1-x peptide levels in brain hippocampus (beta-secretase; 0.1 mg/kg oral): 32%
reduction of Abeta 1-x levels in brain cortical tissue (beta-secretase; 0.3 mg/kg oral): 50%
reduction of Abeta 1-x peptide levels in brain hippocampus (beta-secretase; 0.3 mg/kg oral): 40%
reduction of Abeta 1-x levels in brain cortical tissue (beta-secretase; 1 mg/kg oral): 67%
reduction of Abeta 1-x peptide levels in brain hippocampus (beta-secretase; 1 mg/kg oral): 55%
selectivity for BACE1 over BACE2 (BACE2 IC50 / BACE1 IC50) (human BACE2 (1-460):Fc): approximately 35 fold
IC50 (BACE1; ± 0.048, n=4, read-out: IC50 for SH-SY5YAPP695Wt A-beta (1-40) ELISA): 0.157 nM
IC50 (BACE1; ± 0.050, n=4, read-out: IC50 for SH-SY5YAPP695Wt A-beta (1-42) ELISA): 0.177 nM
SMILES: CC(F)(F)[C@H]1OC[C@]2(c3cc(NC(=O)c4ccc(C#N)cn4)ccc3F)N=C(N)SC[C@H]12 [Example 1, N-[3-[(4aS,5S,7aS)-2-Amino-5-(1,1-difluoroethyl)-4,4a,5,7-tetrahydrofuro[3,4-d][1,3]thiazin-7a-yl]-4-fluoro-phenyl]-5-cyano-pyridine-2-carboxamide]
